# Assays:
# [1] = tested on: Entamoeba Histolytica; test: Systemic activity on hepatic abscess from Entamoeba Histolytica in the hamster; type: in vivo
# Procedure: (B2) Systemic activity on hepatic abscess from Entamoeba Histolytica in the hamster Golden hamsters of the strain RRL-805 of about 50 grams weight are used; after laparatomy, 0.05 ml of a suspension of amoebae (cellular density of about 10^6 amoebae/ml) is injected into the right hepatic lobe. Abscesses develop on the liver, the average weight of which is determined after killing of the animals 72 hours after the injection. The drugs under examination are administered orally twice a day for four days, the treatment being started the day before the infection. The evaluation is carried out by comparing the average weight of the hepatic abscesses developed in the group of animals treated with a drug with that of a control group. The results obtained are recorded in Table 3 which gives the ED84 in mg/kg administered orally, that is the dose of the drug capable of reducing the weight of the abscesses by 84% with respect to the controls. The values given were calculated from the regression line obtained from the results of a series of experiments, each compound being administered to at least 5 groups of six animals at generally different doses.
# [2] = tested on: Trichomonas Vaginalis; test: Systemic activity in mice infected subcutaneously with Trichomonas Vaginalis; type: in vivo
# Procedure: (B1) Systematic activity in mice infected subcutaneously with Trichomonas Vaginalis Female Charles River mice of about 20 grams weight are used and injected subcutaneously with 1 ml of a physiological solution containing 10^6 cells of Trichomonas Vaginalis (evaluated by means of counting in a Burker chamber), resulting from a 24 hour culture in Trichosel BBL substrate containing 15% in weight/volume of deactivated horse serum. Abscesses are thus developed in the place of infection which may burst open externally, piercing the skin. To establish the activity of a product, groups of 10 animals per tested dose are used, and on the 7th day the presence or absence of abscesses are determined (evaluated in terms of all or nothing). The compounds are administered orally, dissolved or in suspension in water, over 5 days, twice a day, the treatment being started 30 minutes after infection. The results obtained are recorded in Table 2 which gives the ED84 in mg/kg for oral administration, that is the dose of the drug capable of preventing the formation of the infection in 84% of the infected animals.
# [3] = cited from earlier work
smiles,measurement,setting,value
"O=[N+]([O-])c1cncn1CCN1CCOCC1 [Nimorazole, reference compound]",ED84,"[1]; Entamoeba histolytica, 72 h, oral, twice a day for four days, dose reducing abscess weight by 84% vs controls, (S)/(NS) = significance of regression line, read-out: ED84, anti-amoebic activity in the hamster",133 mg/kg
same,"Index of relative activity calc. on the ED84 (vs metronidazole), hamster",[1]; relative to metronidazole = 1,0.8
same,ED84,"[2]; Trichomonas vaginalis, 168 h, oral, twice a day over 5 days, dose preventing infection in 84% of animals, (S)/(NS) = significance of regression line, read-out: ED84, anti-trichomonas activity in mice",62.6 mg/kg
same,"Index of relative activity calc. on ED84 (vs metronidazole), mice",[2]; relative to metronidazole = 1,0.45
same,"LD50, acute oral toxicity (data from literature, rat)",[3],3180 mg/kg

# — patent US4272538A, “5-Nitro-imidazole with antiprotozoic activity” (Rotta Research Laboratorium S.p.A., priority 1978, dated 1981)
